# Tested on: 883617-216-R-J1-PDC tumor spheroids, viability
# Test: Anticancer human tumor 883617-216-R-J1-PDC patient-derived bladder carcinoma cell line growth inhibition [PI3K]
# Settings: spheroids with HUVEC and MSC; for IC50: curve of first compound; for viability, T/C: stronger effect = lower value
# How it was run: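 Tumor cells grown as multi-cell spheroids with HUVEC endothelial cells and MSC fibroblast-like stroma were treated with targeted agents combined with inavolisib, alpelisib, duvelisib or copanlisib. Doses fell in half-log steps from near clinical Cmax, else from 10 microM. Viability was measured.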
# [1] = second compound 0.00316 µM, first compound 0.0316 µM
# [2] = second compound 0.00316 µM, first compound 0.1 µM
# [3] = second compound 0.00316 µM, first compound 0.316 µM
# [4] = second compound 0.00316 µM, first compound 1 µM
# [5] = second compound 0.00316 µM, first compound 3.16 µM
# [6] = second compound 0.00316 µM, first compound 10 µM
# [7] = second compound 0.01 µM, first compound 0.0316 µM
# [8] = second compound 0.01 µM, first compound 0.1 µM
# [9] = second compound 0.01 µM, first compound 0.316 µM
# [10] = second compound 0.01 µM, first compound 1 µM
# [11] = second compound 0.01 µM, first compound 3.16 µM
# [12] = second compound 0.01 µM, first compound 10 µM
# [13] = second compound 0.0316 µM, first compound 0.0316 µM
# [14] = second compound 0.0316 µM, first compound 0.1 µM
# [15] = second compound 0.0316 µM, first compound 0.316 µM
# [16] = second compound 0.0316 µM, first compound 1 µM
# [17] = second compound 0.0316 µM, first compound 3.16 µM
# [18] = second compound 0.0316 µM, first compound 10 µM
# [19] = second compound 0.1 µM, first compound 0.0316 µM
# [20] = second compound 0.1 µM, first compound 0.1 µM
# [21] = second compound 0.1 µM, first compound 0.316 µM
# [22] = second compound 0.1 µM, first compound 1 µM
# [23] = second compound 0.1 µM, first compound 3.16 µM
# [24] = second compound 0.1 µM, first compound 10 µM
# [25] = second compound 0.316 µM, first compound 0.0316 µM
# [26] = second compound 0.316 µM, first compound 0.1 µM
# [27] = second compound 0.316 µM, first compound 0.316 µM
# [28] = second compound 0.316 µM, first compound 1 µM
# [29] = second compound 0.316 µM, first compound 3.16 µM
# [30] = second compound 0.316 µM, first compound 10 µM
# [31] = second compound 1 µM, first compound 0.0316 µM
# [32] = second compound 1 µM, first compound 0.1 µM
# [33] = second compound 1 µM, first compound 0.316 µM
# [34] = second compound 1 µM, first compound 1 µM
# [35] = second compound 1 µM, first compound 3.16 µM
# [36] = second compound 1 µM, first compound 10 µM
# 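Further: spheroids exposed to agents for 7 days before the viability read.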
structure (smiles),measurement,setting,value
C#Cc1c(F)ccc2cc(O)cc(-c3ncc4c(N5CC6CCC(C5)N6)nc(OCC56CCCN5CC(F)C6)nc4c3F)c12 (stereo not drawn) + COc1c(OCCCN2CCOCC2)ccc2c3n(c(=NC(=O)c4cnc(N)nc4)nc12)CCN3,IC50,second compound 0.00316 µM,> 10000 nM
same,IC50,second compound 0.01 µM,4880 nM
same,IC50,second compound 0.0316 µM,< 31.6 nM
same,IC50,second compound 0.1 µM,< 31.6 nM
same,IC50,second compound 0.316 µM,< 31.6 nM
same,IC50,second compound 1 µM,< 31.6 nM
same,"viability, T/C",[1],84.7%
same,"viability, T/C",[2],99.8%
same,"viability, T/C",[3],88.7%
same,"viability, T/C",[4],91.3%
same,"viability, T/C",[5],80%
same,"viability, T/C",[6],52.1%
same,"viability, T/C",[7],64.1%
same,"viability, T/C",[8],64.8%
same,"viability, T/C",[9],78.9%
same,"viability, T/C",[10],67.4%
same,"viability, T/C",[11],55.5%
same,"viability, T/C",[12],41%
same,"viability, T/C",[13],37%
same,"viability, T/C",[14],45.5%
same,"viability, T/C",[15],34.4%
same,"viability, T/C",[16],34%
same,"viability, T/C",[17],33.6%
same,"viability, T/C",[18],22.8%
same,"viability, T/C",[19],16.4%
same,"viability, T/C",[20],17.1%
same,"viability, T/C",[21],14.6%
same,"viability, T/C",[22],15.6%
same,"viability, T/C",[23],12.2%
same,"viability, T/C",[24],11.4%
same,"viability, T/C",[25],5.31%
same,"viability, T/C",[26],5%
same,"viability, T/C",[27],4.47%
same,"viability, T/C",[28],4.9%
same,"viability, T/C",[29],3.89%
same,"viability, T/C",[30],2.71%
same,"viability, T/C",[31],3.49%
same,"viability, T/C",[32],3.22%
same,"viability, T/C",[33],2.69%
same,"viability, T/C",[34],2.82%
same,"viability, T/C",[35],2.98%
same,"viability, T/C",[36],0.66%
C=CC(=O)N1CCN(c2nc(=O)n(-c3c(C)ccnc3C(C)C)c3nc(-c4c(O)cccc4F)c(F)cc23)C(C)C1 (stereo not drawn) + COc1c(OCCCN2CCOCC2)ccc2c3n(c(=NC(=O)c4cnc(N)nc4)nc12)CCN3,IC50,second compound 0.00316 µM,< 31.6 nM
same,IC50,second compound 0.01 µM,< 31.6 nM
same,IC50,second compound 0.0316 µM,< 31.6 nM
same,IC50,second compound 0.1 µM,< 31.6 nM
same,IC50,second compound 0.316 µM,< 31.6 nM
same,IC50,second compound 1 µM,< 31.6 nM
same,"viability, T/C",[1],54.8%
same,"viability, T/C",[2],40.3%
same,"viability, T/C",[3],44%
same,"viability, T/C",[4],46.3%
same,"viability, T/C",[5],52.3%
same,"viability, T/C",[6],53.9%
same,"viability, T/C",[7],46%
same,"viability, T/C",[8],34.9%
same,"viability, T/C",[9],33.4%
same,"viability, T/C",[10],41.1%
same,"viability, T/C",[11],43.5%
same,"viability, T/C",[12],38.7%
same,"viability, T/C",[13],21.4%
same,"viability, T/C",[14],19.8%
same,"viability, T/C",[15],16.6%
same,"viability, T/C",[16],22.3%
same,"viability, T/C",[17],24.1%
same,"viability, T/C",[18],24.5%
same,"viability, T/C",[19],8.54%
same,"viability, T/C",[20],3.86%
same,"viability, T/C",[21],6.45%
same,"viability, T/C",[22],8.64%
same,"viability, T/C",[23],10.2%
same,"viability, T/C",[24],9.28%
same,"viability, T/C",[25],1.88%
same,"viability, T/C",[26],1.7%
same,"viability, T/C",[27],1.81%
same,"viability, T/C",[28],2.12%
same,"viability, T/C",[29],2.85%
same,"viability, T/C",[30],2.77%
same,"viability, T/C",[31],1.07%
same,"viability, T/C",[32],0.62%
same,"viability, T/C",[33],0.69%
same,"viability, T/C",[34],0.95%
same,"viability, T/C",[35],1.99%
same,"viability, T/C",[36],0.95%
CC(Cn1ccc(-c2ccc(C#N)c(Cl)c2)n1)NC(=O)c1cc(C(C)O)[nH]n1 (stereo not drawn) + COc1c(OCCCN2CCOCC2)ccc2c3n(c(=NC(=O)c4cnc(N)nc4)nc12)CCN3,IC50,second compound 0.00316 µM,> 10000 nM
same,IC50,second compound 0.01 µM,> 10000 nM
same,IC50,second compound 0.0316 µM,< 31.6 nM
same,IC50,second compound 0.1 µM,< 31.6 nM
same,IC50,second compound 0.316 µM,< 31.6 nM
same,IC50,second compound 1 µM,< 31.6 nM
same,"viability, T/C",[1],74.1%
same,"viability, T/C",[2],75.2%
same,"viability, T/C",[3],83.8%
same,"viability, T/C",[4],96.2%
same,"viability, T/C",[5],83.8%
same,"viability, T/C",[6],79.3%
same,"viability, T/C",[7],68.8%
same,"viability, T/C",[8],70.4%
same,"viability, T/C",[9],70.3%
same,"viability, T/C",[10],65.6%
same,"viability, T/C",[11],65.7%
same,"viability, T/C",[12],64.2%
same,"viability, T/C",[13],31.1%
same,"viability, T/C",[14],33%
same,"viability, T/C",[15],37.3%
same,"viability, T/C",[16],29.4%
same,"viability, T/C",[17],35.7%
same,"viability, T/C",[18],30.2%
same,"viability, T/C",[19],14.9%
same,"viability, T/C",[20],11%
same,"viability, T/C",[21],14.6%
same,"viability, T/C",[22],19%
same,"viability, T/C",[23],13.3%
same,"viability, T/C",[24],11.6%
same,"viability, T/C",[25],5.01%
same,"viability, T/C",[26],4.53%
same,"viability, T/C",[27],4.26%
same,"viability, T/C",[28],4.08%
same,"viability, T/C",[29],5.69%
same,"viability, T/C",[30],4.16%
same,"viability, T/C",[31],3.17%
same,"viability, T/C",[32],2.54%
same,"viability, T/C",[33],3.2%
same,"viability, T/C",[34],3.42%
same,"viability, T/C",[35],4.42%
same,"viability, T/C",[36],4.01%
CC1(C)CCC(Nc2ncc(C(F)(F)F)c(-c3c[nH]c4c(P(C)(C)=O)c(C#N)ccc34)n2)CN1 (stereo not drawn) + COc1c(OCCCN2CCOCC2)ccc2c3n(c(=NC(=O)c4cnc(N)nc4)nc12)CCN3,IC50,second compound 0.00316 µM,< 31.6 nM
same,IC50,second compound 0.01 µM,< 31.6 nM
same,IC50,second compound 0.0316 µM,< 31.6 nM
same,IC50,second compound 0.1 µM,< 31.6 nM
same,IC50,second compound 0.316 µM,< 31.6 nM
same,IC50,second compound 1 µM,< 31.6 nM
same,"viability, T/C",[1],30.3%
same,"viability, T/C",[2],35%
same,"viability, T/C",[3],33%
same,"viability, T/C",[4],32.9%
same,"viability, T/C",[5],13.7%
same,"viability, T/C",[6],0.49%
same,"viability, T/C",[7],31.4%
same,"viability, T/C",[8],29.6%
same,"viability, T/C",[9],24.3%
same,"viability, T/C",[10],23.4%
same,"viability, T/C",[11],15.2%
same,"viability, T/C",[12],1.02%
same,"viability, T/C",[13],20.4%
same,"viability, T/C",[14],22.8%
same,"viability, T/C",[15],24.7%
same,"viability, T/C",[16],21.6%
same,"viability, T/C",[17],9.22%
same,"viability, T/C",[18],0.59%
same,"viability, T/C",[19],15.2%
same,"viability, T/C",[20],12.5%
same,"viability, T/C",[21],12.8%
same,"viability, T/C",[22],10.9%
same,"viability, T/C",[23],6.57%
same,"viability, T/C",[24],1.66%
same,"viability, T/C",[25],5.18%
same,"viability, T/C",[26],4.62%
same,"viability, T/C",[27],4.01%
same,"viability, T/C",[28],4.88%
same,"viability, T/C",[29],1.53%
same,"viability, T/C",[30],0.09%
same,"viability, T/C",[31],2.28%
same,"viability, T/C",[32],1.83%
same,"viability, T/C",[33],1.8%
same,"viability, T/C",[34],1.55%
same,"viability, T/C",[35],0.47%
same,"viability, T/C",[36],0.27%
